± gives the expanded uncertainty stated by the source.
How the values were obtained:
[1] = for vapor or sublimation pressure: Closed cell (Static) method; for Normal melting temperature: DTA
[2] = Molar enthalpy of transition or fusion; details: Crystal; DSC

CC(=O)c1ccc(F)cc1 [1-(4-fluorophenyl)ethanone]
[1]
Details | vapor or sublimation pressure [kPa]
255.13 K, Metastable liquid | 0.00086 ± 0.0001
256.87 K, Metastable liquid | 0.00104 ± 0.0001
258.79 K, Metastable liquid | 0.00128 ± 0.0001
260.76 K, Metastable liquid | 0.00157 ± 0.00011
262.72 K, Metastable liquid | 0.00193 ± 0.00012
264.7 K, Metastable liquid | 0.00233 ± 0.00013
266.63 K, Metastable liquid | 0.00285 ± 0.00014
268.62 K, Metastable liquid | 0.00348 ± 0.00017
270.62 K, Liquid | 0.00417 ± 0.00019
272.54 K, Liquid | 0.00501 ± 0.00022
274.51 K, Liquid | 0.00603 ± 0.00025
276.49 K, Liquid | 0.00725 ± 0.0003
278.49 K, Liquid | 0.00865 ± 0.00035
280.5 K, Liquid | 0.01035 ± 0.00042
282.42 K, Liquid | 0.01227 ± 0.00049
284.44 K, Liquid | 0.01455 ± 0.00054
286.42 K, Liquid | 0.01723 ± 0.00058
288.39 K, Liquid | 0.02022 ± 0.00062
290.38 K, Liquid | 0.02379 ± 0.00068
292.34 K, Liquid | 0.02795 ± 0.00074
294.31 K, Liquid | 0.03279 ± 0.00082
296.34 K, Liquid | 0.03807 ± 0.0009
298.27 K, Liquid | 0.04465 ± 0.001
300.3 K, Liquid | 0.05171 ± 0.0011
302.24 K, Liquid | 0.06005 ± 0.0012
304.2 K, Liquid | 0.06895 ± 0.0014
306.15 K, Liquid | 0.07985 ± 0.0015
308.16 K, Liquid | 0.09146 ± 0.0017
310.15 K, Liquid | 0.1056 ± 0.0019

Details | Normal melting temperature [°C]
[1], Crystal | -4 ± 0.4

Details | Molar enthalpy of transition or fusion [kcal/mol]
[2] | 3.39 ± 0.0956

CC(=O)c1ccc(Br)cc1 [4'-bromoacetophenone]
[1]
Details | vapor or sublimation pressure [kPa]
295.3 K, Crystal | 0.00115 ± 0.00011
297.26 K, Crystal | 0.00142 ± 0.00012
299.2 K, Crystal | 0.00175 ± 0.00012
301.22 K, Crystal | 0.00219 ± 0.00013
303.17 K, Crystal | 0.00269 ± 0.00015
305.12 K, Crystal | 0.00341 ± 0.00017
305.14 K, Metastable liquid | 0.00501 ± 0.00022
307.11 K, Crystal | 0.00418 ± 0.0002
307.13 K, Metastable liquid | 0.00591 ± 0.00025
309.13 K, Crystal | 0.00512 ± 0.00023
309.14 K, Metastable liquid | 0.00699 ± 0.00029
311.05 K, Crystal | 0.00632 ± 0.00027
311.08 K, Metastable liquid | 0.0082 ± 0.00034
312.97 K, Metastable liquid | 0.00953 ± 0.00039
313.08 K, Crystal | 0.00777 ± 0.00032
315.05 K, Crystal | 0.00949 ± 0.00039
315.06 K, Metastable liquid | 0.01125 ± 0.00045
317.04 K, Crystal | 0.01155 ± 0.00046
317.08 K, Metastable liquid | 0.01318 ± 0.00052
319.04 K, Crystal | 0.0141 ± 0.00053
319.06 K, Metastable liquid | 0.01542 ± 0.00055
321.03 K, Metastable liquid | 0.01778 ± 0.00059
322.97 K, Metastable liquid | 0.02065 ± 0.00063
324.98 K, Metastable liquid | 0.02389 ± 0.00068
327.07 K, Liquid | 0.02782 ± 0.00074
328.92 K, Liquid | 0.03179 ± 0.0008
331.01 K, Liquid | 0.03679 ± 0.00088
333 K, Liquid | 0.04238 ± 0.00097
334.94 K, Liquid | 0.04849 ± 0.0011
336.95 K, Liquid | 0.05561 ± 0.0012
338.92 K, Liquid | 0.06344 ± 0.0013
340.91 K, Liquid | 0.07228 ± 0.0014
342.92 K, Liquid | 0.08249 ± 0.0016
344.85 K, Liquid | 0.09385 ± 0.0018
346.83 K, Liquid | 0.1056 ± 0.0019
348.79 K, Liquid | 0.1197 ± 0.0022
350.66 K, Liquid | 0.1346 ± 0.0021
352.73 K, Liquid | 0.1529 ± 0.0022
354.58 K, Liquid | 0.1698 ± 0.0023
356.66 K, Liquid | 0.1927 ± 0.0025
358.51 K, Liquid | 0.2158 ± 0.0027
360.62 K, Liquid | 0.2427 ± 0.0029
362.46 K, Liquid | 0.27 ± 0.0032
364.54 K, Liquid | 0.3031 ± 0.0034
366.57 K, Liquid | 0.3388 ± 0.0037
368.54 K, Liquid | 0.3774 ± 0.0041
370.53 K, Liquid | 0.4201 ± 0.0044
372.5 K, Liquid | 0.4659 ± 0.0048
374.46 K, Liquid | 0.5142 ± 0.0053
376.43 K, Liquid | 0.5712 ± 0.0058
378.39 K, Liquid | 0.6312 ± 0.0063

Details | Normal melting temperature [°C]
[1], Crystal | 51.1 ± 0.4

Details | Molar enthalpy of transition or fusion [kcal/mol]
[2] | 4.57 ± 0.12

CC(=O)c1ccc(Cl)cc1 [4'-chloroacetophenone]
[1]
Details | vapor or sublimation pressure [kPa]
271.56 K, Metastable liquid | 0.00065 ± 0.0001
273.59 K, Metastable liquid | 0.00081 ± 0.0001
275.52 K, Metastable liquid | 0.00098 ± 0.0001
277.47 K, Metastable liquid | 0.00118 ± 0.00011
279.48 K, Metastable liquid | 0.00144 ± 0.00011
281.51 K, Metastable liquid | 0.00176 ± 0.00012
283.42 K, Metastable liquid | 0.0021 ± 0.00013
285.45 K, Metastable liquid | 0.00256 ± 0.00014
287.39 K, Metastable liquid | 0.00305 ± 0.00016
289.34 K, Metastable liquid | 0.00364 ± 0.00017
291.32 K, Liquid | 0.00437 ± 0.0002
293.32 K, Liquid | 0.00519 ± 0.00023
295.29 K, Liquid | 0.00616 ± 0.00026
297.26 K, Liquid | 0.00729 ± 0.0003
299.24 K, Liquid | 0.00863 ± 0.00035
301.19 K, Liquid | 0.01012 ± 0.00041
303.21 K, Liquid | 0.01198 ± 0.00048
305.16 K, Liquid | 0.01396 ± 0.00053
307.18 K, Liquid | 0.01629 ± 0.00056
309.12 K, Liquid | 0.01902 ± 0.00061
311.1 K, Liquid | 0.02236 ± 0.00066
313.1 K, Liquid | 0.02596 ± 0.00071
315.07 K, Liquid | 0.03015 ± 0.00078
317.04 K, Liquid | 0.03486 ± 0.00085
319.07 K, Liquid | 0.04049 ± 0.00094
321 K, Liquid | 0.04613 ± 0.001
323.09 K, Liquid | 0.05334 ± 0.0011
325.1 K, Liquid | 0.0612 ± 0.0013
327.08 K, Liquid | 0.06999 ± 0.0014
329.05 K, Liquid | 0.07991 ± 0.0015
331.04 K, Liquid | 0.09133 ± 0.0017
333 K, Liquid | 0.1037 ± 0.0019
334.98 K, Liquid | 0.1174 ± 0.0021

Details | Normal melting temperature [°C]
[1], Crystal | 17.2 ± 0.4

Details | Molar enthalpy of transition or fusion [kcal/mol]
[2] | 3.66 ± 0.0956

CC(=O)c1ccc(I)cc1 [para-iodoacetophenone]
[1]
Details | vapor or sublimation pressure [kPa]
313.07 K, Crystal | 0.00086 ± 0.00011
315.1 K, Crystal | 0.00108 ± 0.00012
317.07 K, Crystal | 0.00134 ± 0.00012
319.04 K, Crystal | 0.00166 ± 0.00013
321.02 K, Crystal | 0.00205 ± 0.00014
323.02 K, Crystal | 0.00253 ± 0.00015
325.06 K, Crystal | 0.00313 ± 0.00017
326.98 K, Crystal | 0.00382 ± 0.00019
329.06 K, Crystal | 0.00477 ± 0.00022
330.99 K, Crystal | 0.00578 ± 0.00025
333.01 K, Crystal | 0.0071 ± 0.0003
334.95 K, Crystal | 0.00856 ± 0.00035
336.96 K, Crystal | 0.01043 ± 0.00042
338.87 K, Crystal | 0.01256 ± 0.0005
340.91 K, Crystal | 0.01528 ± 0.00055
342.83 K, Crystal | 0.01834 ± 0.0006
344.76 K, Crystal | 0.02192 ± 0.00065
346.73 K, Crystal | 0.02634 ± 0.00072
348.73 K, Crystal | 0.03176 ± 0.0008
348.73 K, Metastable liquid | 0.03831 ± 0.0009
350.7 K, Metastable liquid | 0.04337 ± 0.00098
350.71 K, Crystal | 0.03795 ± 0.0009
352.69 K, Metastable liquid | 0.04939 ± 0.0011
352.75 K, Crystal | 0.04537 ± 0.001
354.68 K, Metastable liquid | 0.05596 ± 0.0012
356.62 K, Metastable liquid | 0.06332 ± 0.0013
358.92 K, Liquid | 0.07293 ± 0.0014
360.65 K, Liquid | 0.08166 ± 0.0016
362.51 K, Liquid | 0.09128 ± 0.0017
364.59 K, Liquid | 0.1048 ± 0.0019
366.58 K, Liquid | 0.1171 ± 0.0021
368.51 K, Liquid | 0.131 ± 0.002
370.52 K, Liquid | 0.1458 ± 0.0021
372.41 K, Liquid | 0.1634 ± 0.0023
374.48 K, Liquid | 0.1829 ± 0.0024
376.36 K, Liquid | 0.2045 ± 0.0026
378.41 K, Liquid | 0.2281 ± 0.0028
380.39 K, Liquid | 0.2553 ± 0.003
382.37 K, Liquid | 0.2831 ± 0.0033
384.3 K, Liquid | 0.3146 ± 0.0035
386.31 K, Liquid | 0.3478 ± 0.0038
388.27 K, Liquid | 0.3882 ± 0.0042
389.83 K, Liquid | 0.42 ± 0.0044
392.22 K, Liquid | 0.4723 ± 0.0049
394.17 K, Liquid | 0.5188 ± 0.0053
396.15 K, Liquid | 0.5726 ± 0.0058
398.12 K, Liquid | 0.6279 ± 0.0062
399.98 K, Liquid | 0.6883 ± 0.0068
402.04 K, Liquid | 0.7599 ± 0.0074

Details | Normal melting temperature [°C]
[1], Crystal | 84.5 ± 0.4

Details | Molar enthalpy of transition or fusion [kcal/mol]
[2] | 5.62 ± 0.12

Source: the NIST ThermoML archive (doi:10.1016/j.jct.2015.09.004)
